Results: US20240382460A1, “Compositions and Methods for Preventing or Improving Premature Skin Aging” (NANJING NUTRABUILDING BIO-TECH CO., LTD., priority 2022, published 2024)

Key:
[1] = tested on: normal human dermal fibroblasts (NHDF); test: UV-induced mtDNA common deletion (Cdel) in fibroblasts, PCR; assay type: cell-based; conditions: for reduction in Cdel incidence compared to the irradiated control group: UV-irradiated NHDF; for Nest PCR - deleted mtDNA, % Irradiated control / Nest PCR - deleted mtDNA, Relative Intensity / PCR on mtDNA (262 bp) long fragment, % Irradiated control / PCR on mtDNA (262 bp) long fragment, Relative Intensity: irradiated conditions UVA 4 J/cm^2
Protocol: (§1) The normal human dermal fibroblasts (NHDF) were incubated for 16 days, with ultraviolet light exposure three times a day. For the experimental group the cells were treated using medium containing 0.5, 3, 30 μM of ergothioneine.
(§2) Deletions in mtDNA were quantified using qPCR. The 522 bp fragment represents the amount of mtDNA with deletions, whereas the 262 bp fragment reflects the quantity of intact mtDNA, Relative intensity (AU) is typically used to describe the intensity of the fluorescent signal, and its magnitude is proportional to the number of fragments measured. And cell activity was analyzed using WST-8.
FIG. 2 depicts the effect of compound ergothioneine on the UV-induced mtDNA common deletion (Cdel) in fibroblasts—migration of PCR products (262 bp fragment=total mtDNA without Cdel; 522 bp fragment=mtDNA with Cdel) on 1.5% agarose gel.

[2] = animals and humans, even at high doses; cited from earlier work
[3] = tested on: normal human dermal fibroblasts (NHDF); test: Cell viability (WST-8) of UVA-irradiated fibroblasts; assay type: cell-based; conditions: light or radiation study, irradiated conditions UVA 4 J/cm^2, read-out: Viability (WST-8), % Irradiated control
Protocol: as §1, §2

## C[N+](C)(C)[C@@H](Cc1c[nH]c(=S)[nH]1)C(=O)[O-] [Ergothioneine, ergothioneine]
[1]; 0.5 μM
  reduction in Cdel incidence compared to the irradiated control group: 56%
  Nest PCR - deleted mtDNA, % Irradiated control: 56%
  Nest PCR - deleted mtDNA, Relative Intensity: 45153 AU
  PCR on mtDNA (262 bp) long fragment, % Irradiated control: 120%
  PCR on mtDNA (262 bp) long fragment, Relative Intensity: 663197 AU
[1]; 3 μM
  reduction in Cdel incidence compared to the irradiated control group: 67%
  Nest PCR - deleted mtDNA, % Irradiated control: 33%
  Nest PCR - deleted mtDNA, Relative Intensity: 26636 AU
  PCR on mtDNA (262 bp) long fragment, % Irradiated control: 110%
  PCR on mtDNA (262 bp) long fragment, Relative Intensity: 606349 AU
[1]; 30 μM
  reduction in Cdel incidence compared to the irradiated control group: 75%
  Nest PCR - deleted mtDNA, % Irradiated control: 25%
  Nest PCR - deleted mtDNA, Relative Intensity: 20645 AU
  PCR on mtDNA (262 bp) long fragment, % Irradiated control: 118%
  PCR on mtDNA (262 bp) long fragment, Relative Intensity: 652512 AU
[2]
  toxicity or adverse effects associated with administration: no toxicity or adverse effects
[3]; 0.5 μM
  viability at 0.5 µM: 100%
[3]; 3 μM
  viability at 3 µM: 96%
[3]; 30 μM
  viability at 30 µM: 96%
